Data from article PMC5344979, “Stabilizing short-lived Schiff base derivatives of 5-aminouracils that activate mucosal-associated invariant T cells” (Nature Communications, 2017).
Blank lines part the entries; values can stand above or below the molecule they belong to.

How the values were obtained:
[1] = test system: human MAIT TCR-transduced Jurkat T cells and MR1-overexpressed C1R cells; experiment: MAIT reporter cell activation assay (surface CD69 on Jurkat.MAIT); format: cell-based; conditions: Jurkat.MAIT + C1R.MR1, 16 h
Description: MAIT activation was evaluated using a well established reporter assay[17] by co-culturing two cell lines (human MAIT TCR-transduced Jurkat T cells and MR1-overexpressed C1R cells, Fig. 3g).
MAIT reporter cell activation assays and MR1 upregulation assays were performed by slight modifications to reported methods. Briefly, Jurkat cells transduced with genes encoding a MAIT TCR comprising the TRAV1-2-TRAJ33 invariant α chain, and a TRBV6-1 β chain, were tested for activation by co-incubation with compounds and C1R antigen-presenting cells expressing MR1 (CIR.MR1) for 16 h or over a time course as indicated. Cells were subsequently stained with PE-Cy7-conjugated anti-CD3 (UCHT1, eBioscience, 1:300), and APC-conjugated anti-CD69 (BD, 1:25) antibodies as well as biotinylated anti-MR1 mAb 26.5, a gift from Dr Ted Hansen, Washington University School of Medicine, St Louis, MO[53], followed by Streptavidin-PE (BD, 1:1,000), before analysis by on a FACS CantoII (BD) flow cytometer. Activation of Jurkat.MAIT was measured by an increase in surface CD69 expression. MR1 expression was detected on gated C1R.MR1 cells in the same assay. […]
MAIT reporter cell activation assay
Conducted as described previously16. Jurkat cells transduced with genes encoding a MAIT TCR comprising the TRAV1-2-TRAJ33 invariant α chain and a TRBV6-1 β chain were co-incubated with C1R antigen presenting cells expressing MR1 (CIR.MR1) in the presence of graded amounts of ligands for 16 h. Cells were subsequently stained with PE-Cy7-conjugated anti-CD3 (eBioscience), and APC-conjugated anti-CD69 (BD Biosciences) antibodies, followed by Streptavidin-PE (BD Biosciences), before analysis by flow cytometry. Activation of Jurkat.MAIT cells was measured by an increase in surface CD69 expression.

[2] = Stability in aqueous media (LCMS); conditions: for t1/2: C0 0.065 mM
Description: Stock solutions of either crude (3a, 3b and 9) or purified compounds (3c, 10 and 11) in DMSO-d6, with a known concentration calibrated using the PULCON NMR technique[52], were dissolved in aqueous buffers, such as TBS buffer (10 mM Tris, 150 mM NaCl, pH 8.0), PBS (pH 7.4), MilliQ water (pH 6.8), or aqueous ammonium acetate buffer (20 mM, pH 5.4, 150 mM NaCl). Consumption of 3 was monitored by LCMS.
Stability in aqueous media. TBS buffer (10 mM Tris, 150 mM NaCl,
pH 8.0), PBS (pH 7.4), MilliQ water (pH 6.8), or ammonium acetate buffer (20 mM, 150 mM
The initial concentration was quantified by measuring the LCMS UV chromatogram
absorbance peak area at 365 nm. Data shown as % of initial concentration.

[3] = physchem; conditions: for half-life: PBS buffer
[4] = test system: MR1 on C1R.MR1 cells; experiment: Upregulation of MR1 surface expression; format: cell-based, human; conditions: 24 h time course, mAb 26.5
Description: MAIT reporter cell activation assays and MR1 upregulation assays were performed by slight modifications to reported methods. Briefly, Jurkat cells transduced with genes encoding a MAIT TCR comprising the TRAV1-2-TRAJ33 invariant α chain, and a TRBV6-1 β chain, were tested for activation by co-incubation with compounds and C1R antigen-presenting cells expressing MR1 (CIR.MR1) for 16 h or over a time course as indicated. Cells were subsequently stained with PE-Cy7-conjugated anti-CD3 (UCHT1, eBioscience, 1:300), and APC-conjugated anti-CD69 (BD, 1:25) antibodies as well as biotinylated anti-MR1 mAb 26.5, a gift from Dr Ted Hansen, Washington University School of Medicine, St Louis, MO[53], followed by Streptavidin-PE (BD, 1:1,000), before analysis by on a FACS CantoII (BD) flow cytometer. Activation of Jurkat.MAIT was measured by an increase in surface CD69 expression. MR1 expression was detected on gated C1R.MR1 cells in the same assay.

[5] = Stability in DMSO (NMR); format: physicochemical; conditions: for days at room temperature
[6] = test system: human MAIT cells; experiment: In vitro PBMC stimulation assay (intracellular cytokine staining); format: cell-based; conditions: human PBMCs alone or with THP-1 cells
Description: To assess the ability of 11 to activate MAIT cells, human PBMCs were cultured alone, or with THP-1 cells, in the presence of the compounds, and cytokine production assessed by intracellular cytokine staining.
Stimulation of PBMCs was performed essentially as previously described. Briefly, 5 × 10^5 PBMCs were cultured, alone or with 1 × 10^5 THP-1 cells, overnight with or without compounds 3c or 11 at a range of doses or with PMA and ionomycin (5 ng ml^−1 and 1 μg ml^−1 final concentrations, respectively) as a positive control. BD GolgiStop (1:1,000 dilution) was added after the first hour of stimulation. Cells were stained for surface markers using human MR1-5-OP-RU tetramer (PE, 1:300), and monoclonal antibodies to CD3 (PE-CF594, UCHT1, BD Horizon, 1:50), CD161 (PE-Cy7, HP-3G10, Biolegend, 1:50) for 30 min on ice and fixed in 1% paraformaldehyde before cytokine production by MAIT cells was detected by intracellular cytokine staining with monoclonal antibodies to TNF (APC, MAb11, eBioscience, 1:50) and IFNγ (AlexaFluor700, B27, BD 1:50) in the presence of 0.3% saponin. Data was acquired on a BD LSR-Fortessa and analysed using FlowJo software (Tree Star).

[7] = molecular target: T1, human MR1 (Homo sapiens, UniProt Q95460); experiment: MR1 refolding with ligand; format: binding; conditions: in the presence of the compound
T1 construct: Genes encoding soluble human MR1 or human β2m were expressed; made in house
Description: E. coli were pelleted and resuspended in a buffer containing 50 mM Tris, 25% (w/v) sucrose, 1 mM EDTA, 10 mM DTT pH 8.0.

[8] = PBS pH 7.4, 37 °C, DMSO stock diluted into buffer

SMILES: Nc1c(NC[C@H](O)[C@H](O)[C@H](O)CO)[nH]c(=O)[nH]c1=O [compound 1, 5-amino-6-D-ribitylaminouracil, reference compound]
EC50 [1]: 18 nM

SMILES: CC(=O)/C=N/c1c(N(C)C[C@H](O)[C@H](O)[C@H](O)CO)[nH]c(=O)[nH]c1=O [compound 9]
EC50 [1]: 14 ± 14 nM
t1/2 ([2]; PBS pH 7.4, 15 °C): 1.92 h
t1/2 [2, 8]: 0.65 h

SMILES: CC(=O)/C=C/c1c(N(C)C[C@H](O)[C@H](O)[C@H](O)CO)[nH]c(=O)[nH]c1=O [compound 10]
EC50 [1]: > 10000 nM
t1/2 ([2]; PBS pH 7.4, 15 °C): 10.2 h
t1/2 [2, 8]: 2.25 h

SMILES: CC(=O)/C=C/c1c(CC[C@H](O)[C@H](O)[C@H](O)CO)[nH]c(=O)[nH]c1=O [compound 11]
cytokine production by human MAIT cells [6]: stimulated the production of interferon-γ (IFNγ) and tumour necrosis factor (TNF)
MR1 surface expression [4]: continued to increase over 24 h
refolding of human MR1 [7]: readily refolded
aqueous stability ([2]; PBS buffer pH 7.4, 37 °C, 5 days): no degradation observed over 5 days

Continued, in another order:

EC50 [1]: 24 nM
time to complete degradation ([2]; pH 8.0, 15 °C): < 5 min
SMILES: CC(=O)C(C)=Nc1c(NCC(O)C(O)C(O)CO)[nH]c(=O)[nH]c1=O [3a, 5-(1-methyl-2-oxopropylideneamino)-6-D-ribitylaminouracil]

half-life at 0.065 mM ([3]; TBS buffer, pH 8): 0.3 h
EC50 [1]: 0.51 nM
SMILES: O=CC=Nc1c(NCC(O)C(O)C(O)CO)[nH]c(=O)[nH]c1=O [3b, 5-(2-oxoethylideneamino)-6-D-ribitylaminouracil]

stable in DMSO solution [5]: > 95%
half-life at 1 mM ([3]; MilliQ water, pH 6.8): 7.68 h
half-life ([3]; pH 7.4): 0.2 h
half-life ([3]; pH 8): 14 h
half-life at 0.065 mM ([3]; TBS buffer, pH 8): 14.4 h
half-life at 0.25 mM ([3]; TBS buffer, pH 8): 14.9 h
half-life at 10 mM ([3]; TBS buffer, pH 8): 8.63 h
t1/2 ([2]; PBS pH 7.4, 15 °C): 5.7 h
t1/2 [2, 8]: 1.47 h
t1/2 ([2]; pH 5.4 ammonium acetate buffer, 15 °C): 0.733 h
t1/2 ([2]; pH 5.4 ammonium acetate buffer, 37 °C): 0.217 h
half-life ([2]; pH 6.8 (MilliQ water), 15 °C, 0.065 mM): 12 h
t1/2 ([2]; pH 6.8 MilliQ water, 15 °C): 12.3 h
t1/2 ([2]; pH 6.8 MilliQ water, 37 °C): 2.18 h
SMILES: CC(=O)C=Nc1c(NCC(O)C(O)C(O)CO)[nH]c(=O)[nH]c1=O [3c, 5-(2-oxopropylideneamino)-6-D-ribitylaminouracil]
time at which MR1 upregulation peaked [4]: 4 h

EC50 [1]: > 100 nM
SMILES: Cc1cnc2c(=O)[nH]c(=O)nc-2n1C[C@H](O)[C@H](O)[C@H](O)CO [4c]
